Results taken from article PMC6582431 (Chemmedchem, 2018).

Tests used:
[1] = CYP450 metabolic stability, mouse liver microsomes; format: in vitro ADME; conditions: 5 μM in liver microsomes, 1 h incubation
FAAH [2] = target: T1, FAAH (Rattus norvegicus, UniProt P97612); assay: In vitro FAAH activity in rat brain homogenates/membranes; format: biochemical; conditions: 100 nM; rat brain homogenates, 15 min pre-incubation; Table 5
T1 sequence (P97612 1-579): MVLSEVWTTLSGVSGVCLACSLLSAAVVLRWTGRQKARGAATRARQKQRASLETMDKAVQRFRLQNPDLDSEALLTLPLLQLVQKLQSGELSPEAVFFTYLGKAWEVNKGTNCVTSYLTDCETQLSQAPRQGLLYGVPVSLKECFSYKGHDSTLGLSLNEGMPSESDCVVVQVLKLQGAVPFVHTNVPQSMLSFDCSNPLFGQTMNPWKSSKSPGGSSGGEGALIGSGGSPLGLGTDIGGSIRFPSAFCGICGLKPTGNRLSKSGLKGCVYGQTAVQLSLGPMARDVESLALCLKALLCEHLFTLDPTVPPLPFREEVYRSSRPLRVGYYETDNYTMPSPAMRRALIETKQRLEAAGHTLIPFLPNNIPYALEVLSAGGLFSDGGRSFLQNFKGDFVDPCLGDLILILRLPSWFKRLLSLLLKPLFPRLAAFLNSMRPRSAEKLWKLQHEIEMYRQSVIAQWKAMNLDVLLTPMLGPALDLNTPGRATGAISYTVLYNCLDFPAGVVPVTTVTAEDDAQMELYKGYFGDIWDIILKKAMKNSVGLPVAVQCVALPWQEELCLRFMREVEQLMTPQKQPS

[3] = CYP450 metabolic stability, rat liver microsomes; format: in vitro ADME; conditions: 5 μM in liver microsomes, 1 h incubation
[4] = CYP450 metabolic stability, dog liver microsomes; format: in vitro ADME; conditions: 5 μM in liver microsomes, 1 h incubation
FAAH [5] = target: T2, FAAH (Mus musculus, UniProt O08914); assay: In vivo FAAH inhibition, liver, after oral administration to mice
T2 sequence (O08914 1-579): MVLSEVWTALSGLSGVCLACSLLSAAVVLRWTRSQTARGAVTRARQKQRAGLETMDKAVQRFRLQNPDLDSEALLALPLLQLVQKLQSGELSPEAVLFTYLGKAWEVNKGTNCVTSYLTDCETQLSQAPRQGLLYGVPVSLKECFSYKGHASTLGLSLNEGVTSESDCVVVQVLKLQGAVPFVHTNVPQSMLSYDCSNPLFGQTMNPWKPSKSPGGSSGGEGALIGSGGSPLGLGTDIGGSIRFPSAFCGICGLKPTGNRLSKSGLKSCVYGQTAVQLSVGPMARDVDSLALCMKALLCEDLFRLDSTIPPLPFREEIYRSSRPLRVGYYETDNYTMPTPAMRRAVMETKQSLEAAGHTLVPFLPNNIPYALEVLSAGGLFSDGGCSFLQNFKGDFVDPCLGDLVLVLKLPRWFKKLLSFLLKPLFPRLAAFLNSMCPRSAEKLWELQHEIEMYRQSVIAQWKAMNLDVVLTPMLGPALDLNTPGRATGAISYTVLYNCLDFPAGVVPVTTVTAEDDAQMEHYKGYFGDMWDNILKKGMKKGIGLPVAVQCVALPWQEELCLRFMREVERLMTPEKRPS

carboxylesterases (CEs) = assay: CE activity in rat liver microsomes; format: biochemical; conditions: 10 μM in rat liver microsomes; Table 5
[6] = CYP450 metabolic stability, human liver microsomes; format: in vitro ADME; conditions: 5 μM in liver microsomes, 1 h incubation
FAAH [7] = target: T2, FAAH; assay: In vivo FAAH inhibition, brain, after oral administration to mice
[8] = CYP450 metabolic stability, primate liver microsomes; format: in vitro ADME; conditions: 5 μM in liver microsomes, 1 h incubation
[9] = multiple ascending doses up to 20 mg; cited from earlier work
MAGL = target: T3, MAGL (Rattus norvegicus, UniProt Q8R431); assay: MAGL activity in rat cerebellum cytosol; format: biochemical; conditions: C inhib=100 μM in rat cerebellum cytosol; Table 5
T3 sequence (Q8R431 1-303): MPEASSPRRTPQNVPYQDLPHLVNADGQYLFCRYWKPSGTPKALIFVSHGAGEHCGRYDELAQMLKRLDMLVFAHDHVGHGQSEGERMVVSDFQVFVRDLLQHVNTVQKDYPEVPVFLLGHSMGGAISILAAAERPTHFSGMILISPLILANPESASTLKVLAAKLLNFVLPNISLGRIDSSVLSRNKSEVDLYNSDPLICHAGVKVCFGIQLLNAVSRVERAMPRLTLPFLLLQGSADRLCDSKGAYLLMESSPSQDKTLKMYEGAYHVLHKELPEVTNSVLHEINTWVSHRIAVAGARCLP

[10] = 0.1 mg kg^−1, mouse, p.o., text b31
[11] = 0.1 mg kg^−1 p.o. in mice, 8 h after administration, Table 5
[12] = 0.1 mg kg^−1 p.o., mice, post-dose

With `CN(C(=O)n1cnc(-c2ccc[n+]([O-])c2)c1)C1CCCCC1` [Compound 8 l, 3‐(1‐(Cyclohexyl(methyl)carbamoyl)‐1H‐imidazol‐4‐yl)pyridine 1‐oxide] the “CYP450 metabolic stability, Mouse, percent of remaining” value [1] was 99±2% of remaining, the “FAAH activity, percent of control, 100 nM” value (FAAH [2]) was 85±11% of control and the “CYP450 metabolic stability, Rat, percent of remaining” value [3] was 91±1% of remaining. The “CYP450 metabolic stability, Dog, percent of remaining” value [4] was 94±2% of remaining, the “in vivo FAAH inhibitory activity, liver” value (FAAH [5]; [10]) was > 90 % of control and the “Liver FAAH activity, percent of control” value (FAAH [5]; [11]) was 6±2% of control. The “time of maximum inhibitory effect in the liver” value (FAAH [5]; [12]) was 1 h, the ED50 (FAAH [5]; mouse, po, 8 h, read-out: ED50 liver FAAH) was 7 µg/kg and the inhibition at 0.1 mg/kg (FAAH [5]; mouse, po, read-out: peripheral inhibition of FAAH sustained over the next 7 h) was greater than 90%. The “CEs (10 μM), percent of control” value (carboxylesterases (CEs)) was 102±5% of control, the “CYP450 metabolic stability, Human, percent of remaining” value [6] was 95±1% of remaining and the “in vivo FAAH inhibitory activity, brain” value (FAAH [7]; [10]) was > 90 % of control. For the same compound, the “Brain FAAH activity, percent of control” value (FAAH [7]; [11]) was 8±2% of control, the “maximal inhibitory effect in the brain” value (FAAH [7]; 0.1 mg kg^−1 p.o., mice, at 8 h post-dose) was greater than 90% and the “time of maximal inhibitory effect in the brain (t max)” value (FAAH [7]; [12]) was 8 h. For the same compound, the “central FAAH inhibition maintained up to 48 h post-administration” value (FAAH [7]; 0.1 mg kg^−1 p.o., mice, up to 48 h) was greater than 50%, the “ED50 cerebral FAAH” value (FAAH [7]; mice, p.o., 0.001 to 3 mg kg^−1, 8 h post-administration) was roughly 27 µg/kg and the “CYP450 metabolic stability, Primate, percent of remaining” value [8] was 88±1% of remaining. The “systemic exposure to anandamide” value [9] was “increased in a dose‐dependent manner” and the “MAGL (100 μM), percent of control” value (MAGL) was 96±4% of control.
